From patent US8455528B2, “Imidazole derivatives useful as inhibitors of FAAH” (Merck Sharp & Dohme Corp., priority 2008, dated 2013)
pIC50: −log10 of the molar value. Where two headings read alike, the source gives them in different places.

Target: T1, Human FAAH (Homo sapiens, UniProt O00519)
T1 construct: The full length FAAH was subcloned into the mammalian expression vector, pcDEF.neo; expressed in transfected cells
T1 sequence (O00519 1-579): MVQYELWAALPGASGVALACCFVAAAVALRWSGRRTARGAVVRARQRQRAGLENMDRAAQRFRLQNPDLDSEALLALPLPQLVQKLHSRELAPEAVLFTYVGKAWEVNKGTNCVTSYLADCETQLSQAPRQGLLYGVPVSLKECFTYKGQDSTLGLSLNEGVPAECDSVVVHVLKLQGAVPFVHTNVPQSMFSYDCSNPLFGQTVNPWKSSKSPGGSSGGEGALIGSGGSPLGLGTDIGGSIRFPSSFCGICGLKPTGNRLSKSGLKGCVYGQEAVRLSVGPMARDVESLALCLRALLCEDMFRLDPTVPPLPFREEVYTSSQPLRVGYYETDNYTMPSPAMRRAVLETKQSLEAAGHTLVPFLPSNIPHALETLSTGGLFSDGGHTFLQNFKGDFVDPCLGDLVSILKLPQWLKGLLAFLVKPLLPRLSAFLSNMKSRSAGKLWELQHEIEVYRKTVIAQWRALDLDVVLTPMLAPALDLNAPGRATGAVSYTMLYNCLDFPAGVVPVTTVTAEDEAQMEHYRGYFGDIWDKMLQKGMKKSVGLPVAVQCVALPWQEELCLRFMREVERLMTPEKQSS
Experiment: Human FAAH lysate assay (CHO cell lysate, AAMCA fluorescent substrate)
Type: biochemical
Settings: human FAAH lysate
From the text: To assist in assay development stable cell lines for human, murine and rat full length FAAH were developed. Human FAAH cDNA (Accession No: NM-001441.1) was purchased from Origene (Rockville, Md.). The full length FAAH was subcloned into the mammalian expression vector, pcDEF.neo, using XbaI and EcoRI restriction sites and used for stable cell line generation. CHO cells expressing FAAH were used to prepare either crude cell lysate or microsome fractions. To harvest cells, tissue culture media was decanted, the monolayer washed three times with Ca^++Mg^++ free PBS and cells recovered after 15 min in enzyme free dissociation media (Millipore Corp, Billerica, Mass.). Cells were collected by centrifuging at 2000 rpm for 15 min. and the cell pellet re-suspended with 50 mM HEPES (pH 7.4) containing 1 mM EDTA and the protease inhibitors aprotinin (1 mg/ml) and leupeptin (100 μM). […] The pellet containing FAAH-enriched microsomes was re-suspend in 50 mM HEPES, (pH 7,4) 1 mM EDTA, and any remaining DNA sheared by passage of material through a 23 gauge needle and aliquots of enzyme were store at -80° C. prior to use. […] (American Radiolabeled Chemicals; 1 mCi/ml) with FAAH (Life Sciences (1995), 56, 1999-2005 and Journal of Pharmacology and Experimented Therapeutics (1997), 283, 729-734), Analytical. Biochemistry (2003), 318, 270-5. […] Analytical. Biochemistry (2005). 343, 143-51 […] Fluorescent release as a measure of FAAH activity was monitored by reading the plate in a CytoFluor Multiplate Reader ([…]). Whole cell assay is conducted with cells harvested after rinsing tissue culture flasks three times with Ca^++Mg^++ free PBS, incubating for 10 min in Enzyme free dissociation media and centrifuging for 5 minutes at 1,000 rpm in table top centrifuge. Cells are resuspended in assay buffer at desired cell number in (4×10^4 cells/assay in 96-well format; 1×10^4 cells/assay in 384-well format) and assayed as described. […] The reaction was terminated by addition of 2 volumes of chloroform:methanol (1:1) and mixed by vortexing. […] K., et al. A fluorescence-based assay for fatty acid amide hydrolase compatible with high-throughput screening. Anal. Biochem. 343:143-51 (2005) • Wilson S. J., et l. A high-throughput-compatible assay for determining the activity of fatty acid amide hydrolase. Anal Biochem. 318:270-5 (2003).

[1] = read-out: Human FAAH lysate assay: IC50

Row | pIC50 [1] | pIC50 (read-out: hFAAH lysate IC50) | SMILES
1 | 7.84 |  | Cn1c(-c2ccccn2)nc(-c2ccc(-c3nccs3)cc2)c1Sc1ccc(Cl)cc1 [Example 119, 2-{5-[(4-chlorophenyl)thio]-1-methyl-4-[4-(1,3-thiazol-2-yl)phenyl]-1H-imidazol-2-yl}pyridine]
2 | 7.33 |  | CC(C)(O)c1ccc(-c2nc3c4ncccc4ccn3c2Sc2ccc(Cl)cc2)cc1 [Example 130, 2-(4-{3-[(4-chlorophenyl)sulfanyl]imidazo[1,2-h][1,7]naphthyridin-2-yl}phenyl)propan-2-ol]
3 | 7.54 |  | CCn1ccc(-c2nc(-c3ccc(-c4ncon4)cc3)c(Sc3ccc(Cl)cc3)n2C)n1 [Example 140, 3-4-({5-[(4-chlorophenyl)sulfanyl]-2-(1-ethyl-1H-pyrazol-3-yl)-1-methyl-1H-imidazol-4-yl)phenyl)-1,2,4-oxadiazole]
4 |  | 7.80 | Cn1c(-c2ccccn2)nc(-c2ccc(-c3ccnnc3)cc2)c1Sc1ccc(Cl)cn1 [Example 122]
5 | 7.86 |  | Cn1cc(-c2nc(-c3ccc(S(C)(=O)=O)cc3)c(Sc3ccc(Cl)cc3)n2C)cn1 [Example 134, 4-{5-[(4-chlorophenyl)sulfanyl]-1-methyl-4-[4-(methylsulfonyl)phenyl]-1H-imidazol-2-yl}-1-methyl-1H-pyrazole]
6 | 7.01 |  | CS(=O)(=O)c1ccc(-c2nc3n(c2Sc2ccc(Cl)cc2)CCC2CCCNC32)cc1 (centres unmarked) [Example 128, 3-[(4-chlorophenyl)thio]-2-[4-(methylsulfonyl)phenyl]-5,6,6a,7,8,9,10,10a-octahydroimidazo[1,2-h]-1,7-naphthyridine]
7 |  | 8.20 | Cn1c(-c2ccccn2)nc(-c2ccc(S(C)(=O)=O)nc2)c1Sc1ccc(Cl)cc1 [Example 101]
8 | 7.32 |  | Cn1c(-c2ccccn2)nc(-c2ccc(S(C)(=O)=O)nc2)c1Sc1ccc(Cl)cn1 [Example 100, 5-Chloro-2-({1-methyl-4-[6-(methylsulfonyl)pyridin-3-yl]-2-pyridin-2-yl-1H-imidazol-5-yl}thio)pyridine]
9 |  | 7.59 | Cn1c(-c2ccsc2)nc(-c2ccc(S(C)(=O)=O)cc2)c1Sc1ccc(Cl)cc1 [Example 135]
10 | 7.64 |  | Cn1c(-c2ccn(CC(C)(C)O)n2)nc(-c2ccc(C#N)cc2)c1Sc1ccc(Cl)cc1 [Example 145, 4-{5-[(4-chlorophenyl)sulfanyl]-2-[1-(2-hydroxy-2-methylpropyl)-1H-pyrazol-3-yl]-1-methyl-1H-imidazol-4-yl}benzonitrile]
11 | 7.44 |  | Cn1cnc(-c2ccc(OC(C)(C)C(N)=O)cc2)c1Sc1ccc(Cl)cn1 [Example 124, 2-(4-{5-[(5-chloropyridin-2-yl)thio]-1-methyl-1H-imidazol-4-yl}phenoxy)-2-methylpropanamide]
